# US20070254882A1, “Sulfamide Derivatives and Pharmaceutical Composition for Upregulation of Lipid Metabolism Comprising Same” (CRYSTAL GENOMICS, INC., priority 2004, published 2007)
# Biological target: T1, human PPAR α (Homo sapiens, UniProt Q07869)
# T1 construct: expressed in transfected cells; host or cells: HepG2 (ATCC HB-8065) or 293T cells (ATCC CRL-1573)
# T1 sequence (Q07869 239-466 limits assumed): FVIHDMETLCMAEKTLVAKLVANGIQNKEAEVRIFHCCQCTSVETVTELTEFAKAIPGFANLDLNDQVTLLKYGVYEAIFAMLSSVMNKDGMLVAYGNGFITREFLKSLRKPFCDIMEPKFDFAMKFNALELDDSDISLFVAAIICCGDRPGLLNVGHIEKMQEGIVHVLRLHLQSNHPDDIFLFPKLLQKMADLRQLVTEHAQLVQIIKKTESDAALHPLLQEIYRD
# Experiment: Exogeneous PPAR α agonist assay (GAL4 DNA binding domain/PPAR α ligand binding domain, luciferase) in 293T cells
# Assay type: cell-based
# Set-up: scale not given here
# Details: 25 μM compound, 48 hours, luciferase activity increase relative to the control
# Procedure: (§1) Step 1) Exogeneous PPAR α Agonist Assay
# (§2) Cross-activation assay of the compounds of Examples 1 to 134 against human PPAR α was carried out using a DNA construct of PPAR α including its ligand binding domain and GAL4 DNA binding domain (Sher et al., Biochemistry 32, 5598-5604, 1993) to analyze whether any of the compounds binds to the ligand binding domain of PPAR α expressed by the construct to affect the PPAR α activity. When the GAL4 DNA binding domainm which is fused with PPAR α ligand binding domain, binds to UAS (upstream activation sequence) of firefly-luciferase, the luciferase is expressed. Therefore, the effect of each of the compounds of Examples on PPAR α activation can be evaluated by analyzing the activation of luciferase.
# (§3) Specifically, 2×10^4 of HepG2 (ATCC HB-8065) or 293T cells (ATCC CRL-1573) were aliquotted into each well of a 96-well plate and cultured for overnight at 37° C. in a CO2 incubator (culture condition: DMEM, 10% FBS and 1% antibiotics).
# (§4) The transformation of PPAR α DNA was traced as follows. First, a mixture of the following ingredients in amounts per well; Solution A (Promega) containing 50 ng of full length human PPAR α DNA, 50 ng of firefly-luciferase construct, 5 ng of Renilla-luciferase construct, 1.0 μl of PLUS™ reagent, and 8.3 μl of a serum-free medium containing no antibiotics; was prepared and kept at room temperature for 15 min. Solution B, which contained 0.5 μl of Lipofectamine™ reagent and 9.5 μl of serum-free medium without antibiotics per well, and Solution C, which contained 50 μl of serum-free medium per well), were prepared. Solutions A, B and C were mixed together to prepare lipofectamin-DNA complex, and the mixture was kept at room temperature for 15 min. Single layer of cells on each well of a 96-well plate were washed with serum-free DMEM, 70 μl of lipofectamine-DNA complex prepared above was added thereto, the plate was incubated at 37° C. in a 5% CO2 incubator for 3 hours to transform the cells, and […] of a diluted solution of each of the compounds of Examples 1 to 134 per well was added to each well to a final concentration 25 μM, and incubated at 37° C. in a CO2 incubator for 48 hours. Then, the medium was removed, 50 μl of passive lysis buffer (Promega) was added thereto, and the plate was shook at room temperature for 20 min to lysis cells. 40 μl of Luciferase Assay reagent of Dual Luciferase Kit […] per 20 μl of cell lysis buffer was added to the plate, followed by reacting at 20° C. for 8 seconds, and 40 μl of Stop & Glo reagent (Promega) as a stop solution was added thereto to quench the reaction. The luminescence intensities of F-luciferase and R-luciferase were measured with MicroLumat Plus (Berthord Technology).
row,SMILES,Activity at 25 μM Step 1 293T cell
1,"Cc1oc(-c2ccc(C(F)(F)F)cc2)nc1COc1cccc(CN(CC(=O)O)S(=O)(=O)N(C)C(C)C)c1 [Example 8, [N—(N-isopropyl-N-methylamino)sulfonyl-N-[3-[[2-(4-trifluoromethylphenyl)-5-methyloxazol-4-yl]methoxy]benzyl]amino]acetic acid]",4
2,"C=CCN(C)S(=O)(=O)N(CC(=O)O)Cc1cccc(OCc2nc(-c3ccc(C(F)(F)F)cc3)oc2C)c1 [Example 9, [N—(N-allyl-N-methylamino)sulfonyl-N-[3-[[2-(4-trifluoromethylphenyl)-5-methyloxazol-4-yl]methoxy]benzyl]amino]acetic acid]",3
3,"CCN(CC)S(=O)(=O)N(CC(=O)O)Cc1ccc(OCCc2nc(-c3ccc(C)cc3)oc2C)cc1 [Example 101, [N—(N,N-diethylamino)sulfonyl-N-[4-[2-[2-(4-methylphenyl)-5-methyloxazol-4-yl]ethoxy]benzyl]amino]acetic acid]",4
4,"Cc1oc(-c2ccc(C(F)(F)F)cc2)nc1COc1cccc(CN(CC(=O)O)S(=O)(=O)N(C)c2ccc(Cl)cc2)c1 [Example 20, [N—[[N-methyl-N-(4-chlorophenyl)]amino]sulfonyl-N-[3-[[2-(4-trifluoromethylphenyl)-5-methyloxazol-4-yl]methoxy]benzyl]amino]acetic acid]",2
5,"Cc1oc(-c2ccc(C(F)(F)F)cc2)nc1CCOc1cccc(CN(CC(=O)O)S(=O)(=O)N2CCCC2)c1 [Example 85, [N-(pyrrolidinyl)sulfonyl-N-[3-[2-[2-(4-trifluoromethylphenyl)-5-methyloxazol-4-yl]ethoxy]benzyl]amino]acetic acid]",1
6,"Cc1ccc(-c2nc(COc3cccc(CN(CC(=O)O)S(=O)(=O)N(C)C)c3)c(C)o2)cc1 [Example 4, [N—[(N,N-dimethylamino)sulfonyl]-N-[3-[[2-(4-methylphenyl)-5-methyloxazol-4-yl]methoxy]benzyl]amino]acetic acid]",3
7,"Cc1ccc(-c2nc(COc3cccc(CN(CC(=O)O)S(=O)(=O)N4CCCc5ccccc54)c3)c(C)o2)cc1 [Example 35, [N-(1,2,3,4-tetrahydroquinolinyl)sulfonyl-N-[3-[[2-(4-methylphenyl)-5-methyloxazol-4-yl]methoxy]benzyl]amino]acetic acid]",2
8,"Cc1ccc(-c2nc(COc3ccc(CN(CC(=O)O)S(=O)(=O)N4CCCC4)cc3)c(C)o2)cc1 [Example 42, [N-(pyrrolidinyl)sulfonyl-N-[4-[[2-(4-methylphenyl)-5-methyloxazol-4-yl]methoxy]benzyl]amino]acetic acid]",3
9,"Cc1oc(-c2ccc(C(F)(F)F)cc2)nc1CCOc1cccc(CN(CC(=O)O)S(=O)(=O)N2CCN(C)CC2)c1 [Example 89, [N-(4-methyl-1-piperazinyl)sulfonyl-N-[3-[2-[2-(4-trifluoromethylphenyl)-5-methyloxazol-4-yl]ethoxy]benzyl]amino]acetic acid]",1
10,"Cc1ccc(-c2nc(CCOc3cccc(CN(CC(=O)O)S(=O)(=O)N4CCN(C)CC4)c3)c(C)o2)cc1 [Example 88, [N-(4-methyl-1-piperazinyl)sulfonyl-N-[3-[2-[2-(4-methylphenyl)-5-methyloxazol-4-yl]ethoxy]benzyl]amino]acetic acid]",1
11,"Cc1oc(-c2ccc(C(F)(F)F)cc2)nc1CCOc1ccc(CN(CC(=O)O)S(=O)(=O)N2CCCc3ccccc32)cc1 [Example 122, [N-(1,2,3,4-tetrahydroquinolinyl)sulfonyl-N-[4-[2-[2-(4-trifluoromethylphenyl)-5-methyloxazol-4-yl]ethoxy]benzyl]amino]acetic acid]",2
12,"Cc1ccc(-c2nc(CCOc3ccc(CN(CC(=O)O)S(=O)(=O)N(C)c4ccc(Cl)cc4)cc3)c(C)o2)cc1 [Example 110, [N—[[N-methyl-N-(4-chlorophenyl)]amino]sulfonyl-N-[4-[2-[2-(4-methylphenyl)-5-methyloxazol-4-yl]ethoxy]benzyl]amino]acetic acid]",2
13,"Cc1oc(-c2cccs2)nc1CCOc1cccc(CN(CC(=O)O)S(=O)(=O)N(C)C)c1 [Example 72, [N—(N,N-dimethylamino)sulfonyl-N-[3-[2-[2-(thiophen-2-yl)-5-methyloxazol-4-yl]ethoxy]benzyl]amino]acetic acid]",2
14,"Cc1nc(-c2ccc(C(F)(F)F)cc2)oc1COc1cccc(CN(CC(=O)O)S(=O)(=O)N2CCCC2)c1 [Example 26, [N-(pyrrolidinyl)sulfonyl-N-[3-[[2-(4-trifluoromethylphenyl)-4-methyloxazol-5-yl]methoxy]benzyl]amino]acetic acid]",2
15,"Cc1ccc(-c2nc(CCOc3ccc(CN(CC(=O)O)S(=O)(=O)N4CCc5ccccc54)cc3)c(C)o2)cc1 [Example 117, [N-(indolinyl)sulfonyl-N-[4-[2-[2-(4-methylphenyl)-5-methyloxazol-4-yl]ethoxy]benzyl]amino]acetic acid]",3
16,"Cc1ccc(-c2nc(COc3ccc(CN(CC(=O)O)S(=O)(=O)N(C)C)cc3)c(C)o2)cc1 [Example 39, [N—(N,N-dimethylamino)sulfonyl-N-[4-[[2-(4-methylphenyl)-5-methyloxazol-4-yl]methoxy]benzyl]amino]acetic acid]",2
17,"Cc1oc(-c2cccs2)nc1COc1ccc(CN(CC(=O)O)S(=O)(=O)N(C)c2ccccc2)cc1 [Example 48, [N—[(N-methyl-N-phenyl)amino]sulfonyl-N-[4-[[2-(thiophen-2-yl)-5-methyloxazol-4-yl]methoxy]benzyl]amino]acetic acid]",2
18,"Cc1ccc(-c2nc(COc3ccc(CN(CC(=O)O)S(=O)(=O)N4CCc5ccccc54)cc3)c(C)o2)cc1 [Example 54, [N-(indolinyl)sulfonyl-N-[4-[[2-(4-methylphenyl)-5-methyloxazol-4-yl]methoxy]benzyl]amino]acetic acid]",2
19,"Cc1oc(-c2ccc(C(F)(F)F)cc2)nc1COc1ccc(CN(CC(=O)O)S(=O)(=O)N2CCc3ccccc32)cc1 [Example 55, [N-(indolinyl)sulfonyl-N-[4-[[2-(4-trifluoromethylphenyl)-5-methyloxazol-4-yl]methoxy]benzyl]amino]acetic acid]",2
20,"Cc1oc(-c2cccs2)nc1CCOc1ccc(CN(CC(=O)O)S(=O)(=O)N(C)c2ccc(Cl)cc2)cc1 [Example 115, [N—[[N-methyl-N-(4-chlorophenyl)]amino]sulfonyl-N-[4-[2-[2-(thiophen-2-yl)-5-methyloxazol-4-yl]ethoxy]benzyl]amino]acetic acid]",2
21,"Cc1oc(-c2ccc(C(F)(F)F)cc2)nc1CCOc1ccc(CN(CC(=O)O)S(=O)(=O)N(C)C)cc1 [Example 103, [N—(N,N-dimethylamino)sulfonyl-N-[4-[2-[2-(4-trifluoromethylphenyl)-5-methyloxazol-4-yl]ethoxy]benzyl]amino]acetic acid]",2

# Biological target: T1, human PPAR α
# Experiment: Exogeneous PPAR α agonist assay (GAL4 DNA binding domain/PPAR α ligand binding domain, luciferase) in HepG2 cells
# Assay type: cell-based
# Details: 25 μM compound, 48 hours, luciferase activity increase relative to the control
# Procedure: as §1, §2, §3, §4
row,SMILES,Activity at 25 μM Step 1 HepG2 cell
1,"Cc1oc(-c2ccc(C(F)(F)F)cc2)nc1COc1cccc(CN(CC(=O)O)S(=O)(=O)N(C)C(C)C)c1 [Example 8, [N—(N-isopropyl-N-methylamino)sulfonyl-N-[3-[[2-(4-trifluoromethylphenyl)-5-methyloxazol-4-yl]methoxy]benzyl]amino]acetic acid]",31
2,"C=CCN(C)S(=O)(=O)N(CC(=O)O)Cc1cccc(OCc2nc(-c3ccc(C(F)(F)F)cc3)oc2C)c1 [Example 9, [N—(N-allyl-N-methylamino)sulfonyl-N-[3-[[2-(4-trifluoromethylphenyl)-5-methyloxazol-4-yl]methoxy]benzyl]amino]acetic acid]",52
3,"CCN(CC)S(=O)(=O)N(CC(=O)O)Cc1ccc(OCCc2nc(-c3ccc(C)cc3)oc2C)cc1 [Example 101, [N—(N,N-diethylamino)sulfonyl-N-[4-[2-[2-(4-methylphenyl)-5-methyloxazol-4-yl]ethoxy]benzyl]amino]acetic acid]",45
